Where a name gives a salt, the structure may show the parent alone.
Assays:
IMR5 [1] = experiment: In vitro cytotoxicity assay (MTT), neuroblastoma IMR-5; format: cell-based, human; details: medium with 10% inactivated FBS
Description: (§1) In vitro cytotoxicity assays were conducted on different tumour cell lines, also of neuroectodermal origin. Purpose of said assays was also to check the compounds cytotoxic action and specificity. […] The aforesaid cells were assayed with the following compounds: • AM: ester of maleic acid (ex. 1) dissolved in DMSO • AS: ester of succinic acid (ex. 2) dissolved in DMSO • ADG: ester of diglycolic acid (ex. 3) dissolved in DMSO • AF: ester of phthalic acid (ex. 4) dissolved in DMSO • ABT: […] AE phosphoric ester (ex.12) dissolved in HEPES • AED: AE acetal with daunosamine (ex.13) dissolved in HEPES The cells, cultured according to known methods, were seeded 24 hrs prior to treatment with the various derivatives at a concentration of 1000 cells/100 μl. For molecules dissolved in dimethylsulphoxide, DMSO, the concentration of the initial stock was 200 mM and for molecules dissolved in a HEPES buffer and in the physiological solution was 1 mM. […] For each assay, a control was carried out with the medium alone (RPMI with 10% inactivated fetal bovine serum, FBS, and 1% penicillin/streptomycin). […] The cells viability was assessed by the MTT dye assay. […] The EC50 values (μM) referred to each compound and cell line are given.

SJ-N-KP [2] = experiment: In vitro cytotoxicity assay (MTT), neuroblastoma SJ-N-KP; format: cell-based, human; details: 72 hrs exposure, medium with 10% inactivated FBS
Description: as §1

LoVo 109 [3] = experiment: In vitro cytotoxicity assay (MTT), colon adenocarcinoma LoVo 109; format: cell-based, human; details: 72 hrs exposure, medium with 10% inactivated FBS
Description: as §1

LoVo 109 [4] = experiment: as above; format: cell-based, human; details: 72 hrs exposure, medium with non-inactivated FBS (esterase)
IMR5 [5] = experiment: In vitro cytotoxicity assay (MTT), neuroblastoma IMR-5; format: cell-based, human; details: 72 hrs exposure, medium with non-inactivated FBS (esterase)
SJ-N-KP [6] = experiment: In vitro cytotoxicity assay (MTT), neuroblastoma SJ-N-KP; format: cell-based, human; details: 72 hrs exposure, medium with non-inactivated FBS (esterase)
[7] = test system: tumour cells of neuroectodermal origin; details: Italian patent application No. MI 2000A001216; cited from earlier work
[8] = water and physiological solution; cited from earlier work

Compound	EC50 (IMR5 [1]; 72 hrs exposure) [µM]	EC50 (SJ-N-KP [2]) [µM]	EC50 (LoVo 109 [3]) [µM]	other results
O=C(O)CCC(=O)OCc1cc(O)c2c(c1)C(=O)c1cccc(O)c1C2=O [Ex. 2: AS, mono-(4,5-dihydroxy-9,10-dioxo-9,10-dihydroanthracen-2-ylmethyl)ester succinic acid]	40	43	43	
N[C@@H](Cc1c[nH]c2ccccc12)C(=O)OCc1cc(O)c2c(c1)C(=O)c1cccc(O)c1C2=O [Ex. 6: TRIP, AE Ester with Tryptophan]	10	8 to 9	8 to 9	
O=C(O)c1ccc(C(=O)OCc2cc(O)c3c(c2)C(=O)c2cccc(O)c2C3=O)c(C(=O)O)c1 [Ex. 5: ABT, 1-(4,5-dihydroxy-9,10-dioxo-9,10-dihydroanthracen-2-ylmethyl)ester 1,2,4-Benzenetricarboxylic acid]	160	150		
O=C(O)C=CC(=O)OCc1cc(O)c2c(c1)C(=O)c1cccc(O)c1C2=O [Ex. 1: AM, mono-(4,5-dihydroxy-9,10-dioxo-9,10-dihydroanthracen-2-ylmethyl)ester but-2-endioic acid]	270 to 280	270 to 280		
C[C@H](N)C(=O)OCc1cc(O)c2c(c1)C(=O)c1cccc(O)c1C2=O [Ex. 11: ALA, ala-aloe-emodin hydrochloride]			200	EC50 (IMR5 [1]; 72 hrs exposure, hydrochloride): 200 µM; EC50 (IMR5 [1]; 72 hrs exposure, listed as Ex. 11: ALA-HCI, hydrochloride): 70.6 µM; EC50 (SJ-N-KP [2]; hydrochloride): 200 µM; EC50 (SJ-N-KP [2]; listed as Ex. 11: ALA-HCI, hydrochloride): 70.6 µM
O=C(O)COCC(=O)OCc1cc(O)c2c(c1)C(=O)c1cccc(O)c1C2=O [Ex. 3: ADG, (4,5-Dihydroxy-9,10-dioxo-9,10-dihydroanthracen-2-ylmethoxycarbonylmethoxy) acetic acid]				EC50 (IMR5 [1]; Homo sapiens, IMR-5, 72 hrs exposure): 10 µM; EC50 (SJ-N-KP [2]; Homo sapiens): 10 µM; EC50 (LoVo 109 [3]; Homo sapiens, LoVo): 20 µM
O=C(O)c1ccccc1C(=O)OCc1cc(O)c2c(c1)C(=O)c1cccc(O)c1C2=O [Ex. 4: AF, mono-(4,5-dihydroxy-9,10-dioxo-9,10-dihydroanthracen-2-ylmethyl)ester phthalic acid]	250	300		EC50 (LoVo 109 [4]): 50 µM; EC50 (IMR5 [5]): 50 µM; EC50 (SJ-N-KP [6]): 50 µM
O=C1c2cccc(O)c2C(=O)c2c(O)cc(COP(=O)(O)O)cc21 [Ex. 12: AEP, AE Ester with Phosphoric Acid]	10	12	20	
CC[C@H](C)[C@H](N)C(=O)OCc1cc(O)c2c(c1)C(=O)c1cccc(O)c1C2=O [Ex. 8: PJ8, AE Ester with Isoleucine]	9	9	20	
O=C1c2cccc(O)c2C(=O)c2c(O)cc(CO)cc21 [Aloe-emodin, aloe-emodin]				cytotoxicity [7]: specific cytotoxicity to tumour cells of neuroectodermal origin; solubility [8]: hardly soluble in water and in the physiological solution
AE Acetal with Daunosamine [Ex. 13: AED]	5	5	10	
C[C@H](N)C(=O)OCc1cc(O)c2c(c1)C(=O)c1cccc(O)c1C2=O [Ex. 10: EM9, ala-aloe-emodin trifluoroacetate]	6.7	6.7	5	
CC(N)C(=O)OCc1cc(O)c2c(c1)C(=O)c1cccc(O)c1C2=O (centres unmarked) [Ex. 7: ALA-NH2, AE Ester with Alanine]	300	264		
NC(Cc1ccc(O)cc1)C(=O)OCc1cc(O)c2c(c1)C(=O)c1cccc(O)c1C2=O (centres unmarked) [Ex. 9: TIR-NH2, AE Ester with Tyrosine]		96.4	26	

— US7268162B2, “Aloe-emodin derivatives and their use in the treatment of neoplasias” (Universita' Degli Studi di Padova, priority 2001, dated 2007)
